72 compounds from paper PMC7822874, “Chemoprotective antimalarials identified through quantitative high-throughput screening of Plasmodium blood and liver stage parasites” (Scientific Reports, 2021) can be followed below.

As usually defined, the AC50 is the concentration at which the activity in the assay is half-maximal.

Molecules are shown by their SMILES.

The subject of one assay is Plasmodium falciparum Dd2 asexual blood stage parasites. Kind of assay: microbe, parasite or virus in culture. More on the design: species or system Plasmodium falciparum Dd2 in human erythrocytes; single determination (one 11-point concentration-response curve). The following applies: Plasmodium falciparum, DD2, Erythrocyte, 72 h.
`Cc1ccc(C)c(OCCn2cc(C(=O)c3ccco3)c3ccccc32)c1` [NCGC00101856-01]: the AC50 amounted to 5.31 µM.
The same measure, in the same setting: next, `Cc1ccccc1CN1C(=O)C(C)N=C(c2ccccc2)c2ccccc21` (stereo not drawn) [NCGC00140509-01]: 15 µM.

The assay is the same for the next values; noted with them: Plasmodium falciparum, DD2, Erythrocyte, 72 h; read-out: AC50.
Take `CCOC(=O)c1cc(-c2ccc(OC)cc2)n(CCC(=O)Nc2cccc(C(C)=O)c2)c1C` [NCGC00140940-01]: the half-maximal activity concentration (AC50) stood at 0.211 µM.
As to `COc1cc(C(=O)NC2CCN(c3cc(-c4ccccc4)n[nH]3)CC2)cc(OC)c1OC` [NCGC00436906-01], the AC50 stood at 5.96 µM.
Take `Cc1cc(C)n(CC(O)COc2ccccc2)n1` (stereo not drawn) [MLS000525359-01]: the AC50 amounted to 13.3 µM.
Same read-out and setting: next, `Cc1cc(C)c(S(=O)(=O)n2ccc(-c3ccc(OCCN(C)c4ccccn4)cc3)n2)c(C)c1` [MLS000331310-01]: 7.5 µM; `COC1CCN(C(=O)C(C)(C)Oc2nn(CC3CC3)c3ccc(CN4CCCC4)cc23)CC1` [NCGC00419576-01]: 9.44 µM; `CCC(=O)C1=C(c2ccc(OC)c(OC)c2)N(C(=O)CC)n2c(CC)nnc2S1` [NCGC00137256-01]: 4.73 µM.
In the case of `Cc1ccc2oc(=O)n(CCOc3ccccc3C)c2c1` [MLS000708194-01], the AC50 came out at 4.73 µM.
On to `CCOc1ccc(C(C)NC(S)=NC2CCCCC2)cc1OCC` (stereo not drawn) [MLS001007596-01], for which the AC50 was 0.211 µM.
On the same count and under the same terms, next, `C#CCNC(=O)C[C@@H]1c2nc(NC(=O)OCC=C)sc2C[C@@H]2[C@](C)(CO)[C@H](O)CC[C@]21C` [NCGC00391491-01]: 15 µM; `CC(=O)Nc1nc2ccccc2n1Cc1ccc(Cl)cc1` [MLS000779302-01]: 8.41 µM; `COc1ccc(Nc2cc(C)c3cc(NC(=O)Cc4c(F)cccc4Cl)ccc3n2)cc1` [NCGC00124312-01]: 5.31 µM.
Same read-out and setting: next, `Cc1ccc(S(=O)(=O)N2CCN(/C(S)=N/Cc3ccc4c(c3)OCO4)CC2)cc1` [MLS001002637-01]: 2.37 µM; `CCCCN(CC)CCNC(S)=Nc1ccc2nc(N3CCN(C)CC3)cc(C)c2c1` [MLS001197626-01]: 5.96 µM; `CCOc1cccc(C2c3[nH]c4ccccc4c3CCN2C(=O)CSCc2ccc(F)cc2)c1` (stereo not drawn) [NCGC00134633-01]: 15 µM.
Still for that read-out and setting: under `CCCCCCSc1ccc([C@H]2N[C@@](Cc3ccccc3)(C(=O)OC)[C@H]3C(=O)N(CC)C(=O)[C@@H]23)cc1` [MLS001362744-01] stands 3.35 µM.
For `CC(C)N1CC=C(c2c[nH]c3ccccc23)CC1` [MLS000093714-01], the half-maximal activity concentration (AC50) is 10.6 µM.
The same measure, in the same setting: next, `COc1ccc(-c2noc(-c3cccn3CC(=O)Nc3ccc(C)cc3C)n2)cc1F` [NCGC00445492-01]: 10.6 µM.
On the same count and under the same terms, next, `COc1ccc(-c2cnc3[nH]cc(CC(=O)NCc4cccnc4)c3c2)cn1` [NCGC00412433-01]: 6.85 µM; `CCOCCCNc1nc2cc(OC)c(OC)cc2c2nc(-c3ccccc3)nn12` [NCGC00112857-01]: 0.211 µM.
Same read-out and setting: under `Cc1ccc(C2Cn3nnc(-c4noc(-c5n[nH]c6c5CCCC6)n4)c3CO2)cc1` (stereo not drawn) [NCGC00454353-01] stands 13.3 µM; under `CN(C)CCNC(=O)c1ccc2c(c1)N(Cc1c(F)cccc1Cl)C(=O)c1ccccc1S2` [NCGC00108148-01], 2.11 µM; under `O=C(N/N=C/c1ccc(OCc2ccccc2)cc1)c1ccco1` [MLS000769970-01], 13.3 µM.
Take `CCc1c(C)c2ccc3c(c2oc1=O)CN(Cc1ccccc1)CO3` [NCGC00125086-01]: the AC50 was 2.11 µM.
The same measure, in the same setting: under `O=C(Nc1ccc2c(N3CCCCC3)ncnc2c1)c1ccc(F)c(F)c1` [NCGC00425519-01] stands 4.73 µM; under `C[S+](=O)([O-])c1cccc(-c2cnc3[nH]cc(CC(=O)NCc4cccnc4)c3c2)c1` [NCGC00412364-01], 9.68 µM; under `CC(=O)Nc1cc(-c2ccccc2)ccc1O` [MLS000030849-01], 4.73 µM.
On to `CCOC(=O)c1ccccc1NC(=O)c1cn(CC(C)C)c(=O)c2cc(OC)c(OC)cc12` [NCGC00104537-01], for which the AC50 came to 8.41 µM.
For the compound `Cc1c(CN2CC(Oc3ccccc3C(=O)NCc3ccccc3)C2)cnn1C` [NCGC00458092-01], the AC50 came to 4.22 µM.
Same read-out and setting: under `COc1ccc(-c2cn3c(n2)sc2cc(C(=O)NCCCN4CCCCC4)ccc23)cc1` [NCGC00121823-01] stands 4.73 µM; under `CCC(C(=O)NCCn1ccn2nc(-c3ccc(OC)cc3)cc2c1=O)c1ccccc1` (stereo not drawn) [NCGC00456905-01], 15 µM; under `OC(COc1ccccc1CNCCc1ccccc1)CN1CCSCC1` (stereo not drawn) [NCGC00427853-01], 2.11 µM.
Same read-out and setting: under `CCOC(=O)c1c(CN(C)C)oc2cc(CN(C)C)c(O)c(CSc3ccccc3)c12` [MLS000038262-01] stands 0.596 µM; under `O=C(c1ccc(-c2ncc3cnc(-c4ccccc4)cn23)cc1)N1CCc2cccnc21` [NCGC00413975-01], 17.2 µM; under `CC1CCCN(Cc2c(O)ccc3c(=O)c(Oc4ccc(C(C)(C)C)cc4)c(C(F)(F)F)oc23)C1` (stereo not drawn) [NCGC00100587-01], 0.299 µM.
Same read-out and setting: under `O=C(NNc1nc(-c2ccc(Br)cc2)cs1)c1ccco1` [MLS000699189-01] stands 5.31 µM; under `CCOC(=O)C1CCN(c2cc(=O)n(-c3ccccc3Cl)c(=O)[nH]2)CC1` [MLS000045867-01], 8.41 µM; under `CC1=C[C@@H](CN2CCOCC2)[C@H](C(C)C)C[C@H]1Cc1nnc(-c2ccc([N+](=O)[O-])cc2)o1` [NCGC00394583-01], 9.44 µM.
`c1ccc(-c2nc(-c3ccncc3)no2)c(OC2CCN(C3CCCC3)C2)c1` (stereo not drawn) [NCGC00458106-01]: the half-maximal activity concentration (AC50) came to 15 µM.
Same read-out and setting: next, `CC1CCN(CC2CCCCCN2C(=O)NCc2ccc(F)cc2)CC1` (stereo not drawn) [NCGC00456722-01]: 13.3 µM; `CCOC(=O)c1c(CN2CCN(CCO)CC2)n(-c2ccccc2)c2cc(Br)c(O)cc12` [MLS000778151-01]: 5.96 µM; `CC(C)CCNC(=O)c1cc(C(=O)c2cc(F)ccc2O)cn(CCC(C)C)c1=O` [MLS000761418-01]: 2.11 µM.
Take `c1ccc(-c2ccc3ncc(Nc4cccnc4)n3n2)cc1` [NCGC00412518-01]: the AC50 was determined as 4.85 µM.
On the same count and under the same terms, under `COc1ccc(CCn2c(=N)c(C(=O)NCc3ccco3)cc3c(=O)n4cccc(C)c4nc32)cc1` [MLS000040240-01] stands 1.68 µM.
The same measure, in the same setting: next, `COc1ccccc1-c1n[nH]c2ncc(-c3cnn(C)c3)nc12` [NCGC00419074-01]: 17.2 µM; `CCn1c(N2CCC(C)CC2)nc2c1c(=O)n(C)c(=O)n2C` [MLS000115844-01]: 5.96 µM.
Same read-out and setting: next, `CC1CCCN(Cc2c(O)ccc3c(=O)c(Oc4ccccc4Cl)c(C(F)(F)F)oc23)C1` (stereo not drawn) [NCGC00101512-01]: 2.11 µM; `COc1ccc(-c2ccc3ncc(Nc4ccnc(N5CCOCC5)c4)n3n2)cn1` [NCGC00412623-01]: 4.85 µM.
Turning to `COc1ccc(-c2nc3sc(CCNC(=O)c4ccc(C(C)(C)C)cc4)c(C)n3n2)cc1` [NCGC00137079-01], the half-maximal activity concentration (AC50) was found to be 2.11 µM.
On the same count and under the same terms, under `CCCn1c(C)cnc1CC1CCCN([S+](=O)([O-])c2cc(OC)ccc2OC)C1` (stereo not drawn) [NCGC00469684-01] stands 10.6 µM; under `Clc1ccc(C(Cn2ccnc2)OCc2csc3c(Cl)cccc23)c(Cl)c1` (stereo not drawn) [MLS002154122-01], 2.37 µM; under `CCOc1ccc(-c2cn3c(n2)sc2cc(C(=O)NC(C)C45CC6CC(CC(C6)C4)C5)ccc23)cc1` (stereo not drawn) [NCGC00113230-01], 5.96 µM.
Same read-out and setting: under `COc1ccc(NC(=O)O[C@@H]2CC[C@]3(C)C(CC[C@@H](O)[C@H]3CC(=O)NCc3ccccc3OC)[C@]2(C)CO)cc1` (stereo partly drawn) [NCGC00398535-01] stands 6.68 µM; under `COc1ccc(CN2C(=O)COC[C@@H]2[C@H](O)c2ccc(NC(=O)c3ccc(C(C)(C)C)cc3)cc2)cc1` [NCGC00392864-01], 2.11 µM; under `CCCN1CCC(NCc2cn(C)nc2-c2ccc(Oc3ccccc3)cc2)CC1` [MLS000732385-01], 4.73 µM.
On the same count and under the same terms, next, `COc1ccc(-n2cc(CNCCCn3ccnc3)c(-c3ccccc3Cl)n2)cc1` [MLS000734282-01]: 3.35 µM; `Cc1ccc(CN2COc3ccc4c(-c5ccccc5)cc(=O)oc4c3C2)cc1` [NCGC00116312-01]: 0.841 µM.
On to `CCCOC(=O)c1ccc(-c2c(C)noc2-c2ccc(OC)cc2O)o1` [MLS000097856-01], for which the concentration at half-maximal activity (AC50) was 1.88 µM.
As for `COc1ccccc1N1CCN(C(=O)c2ccc3c(c2)N(Cc2cc(C)ccc2C)C(=O)c2ccccc2[S+]3(=O)[O-])CC1` [NCGC00109735-01], the AC50 was 9.44 µM.
In the case of `COc1ccccc1C(=O)N1CCC2(CC1)OC(=O)N(Cc1ccccc1C#N)C2(C)c1ccccc1` (stereo not drawn) [NCGC00415624-01], the concentration at half-maximal activity (AC50) was 15 µM.
On the same count and under the same terms, next, `O=C1N(c2ccccc2C(F)(F)F)O[C@@]1(c1ccccc1)C1CCCC1` [MLS002206604-01]: 2.99 µM; `COc1cccc(NC(=O)C2(C)CN(C)Cc3ccc(N4CCOCC4)nc32)c1` (stereo not drawn) [NCGC00414578-01]: 3.85 µM; `O=C1c2cc(N3CCOCC3)nc(-c3ccccc3)c2CN1Cc1ccccc1` [NCGC00419273-01]: 21.7 µM.
On the same count and under the same terms, next, `O=C(Nc1ccc2n(c1=O)C[C@H]1C[C@@H]2CN(Cc2ccc(F)cc2)C1)c1cccs1` [NCGC00395674-01]: 15.3 µM; `CN(C(=O)CSc1nc2ccc(NC(=O)CCc3ccccc3)cc2s1)c1ccccc1` [NCGC00118644-01]: 13.3 µM.
On the same count and under the same terms, next, `O=C(NC1CCCCC1)C(c1cccs1)N(CCCN1CCOCC1)C(=O)c1ccc(-c2ccccc2)[nH]1` (stereo not drawn) [MLS000711767-01]: 4.73 µM; `CN(C)Cc1cn2c(=O)n(C)cc(-c3cccc(C(F)(F)F)c3)c2n1` [NCGC00416418-01]: 21.7 µM; `O=C1CC(c2ccccc2)N(Cc2ccncc2)CCCN([S+](=O)([O-])c2cccc(F)c2)CCN1` (stereo not drawn) [NCGC00467202-01]: 4.73 µM.
As for `Cc1ccc(CN2CCOC[C@H]2c2nc(C(C)(C)C)c[nH]2)cc1` [NCGC00393602-01], the concentration at half-maximal activity (AC50) stood at 13.7 µM.
On the same count and under the same terms, next, `Fc1ccc(-c2ccc3ncc(Nc4ccnc(N5CCOCC5)c4)n3n2)cc1` [NCGC00412558-01]: 1.72 µM; `O=C(Nc1cc(Cl)ccc1O)c1cc2nc(-c3ccc4c(c3)OCO4)cc(C(F)(F)F)n2n1` [NCGC00164969-01]: 2.66 µM.
